Legend:
[1] = species: Homo sapiens; experiment: Selectivity ratio of IC50 for recombinant human ACC1 to IC50 for recombinant human ACC2
[2] = biological target: Acetyl-CoA carboxylase 2 (Homo sapiens, UniProt O00763); experiment: Inhibition of recombinant human ACC2 assessed as reduction in conversion of acetyl-CoA to malonyl-CoA incubated for 1 to 3 hrs with substrate by MALDI-TOF-MS analysis
[3] = biological target: Cytochrome P450 3A4 (Homo sapiens, UniProt P08684); experiment: Inhibition of CYP3A4 (unknown origin); assay type: ADME
Sequence of Cytochrome P450 3A4 (P08684 whole entry): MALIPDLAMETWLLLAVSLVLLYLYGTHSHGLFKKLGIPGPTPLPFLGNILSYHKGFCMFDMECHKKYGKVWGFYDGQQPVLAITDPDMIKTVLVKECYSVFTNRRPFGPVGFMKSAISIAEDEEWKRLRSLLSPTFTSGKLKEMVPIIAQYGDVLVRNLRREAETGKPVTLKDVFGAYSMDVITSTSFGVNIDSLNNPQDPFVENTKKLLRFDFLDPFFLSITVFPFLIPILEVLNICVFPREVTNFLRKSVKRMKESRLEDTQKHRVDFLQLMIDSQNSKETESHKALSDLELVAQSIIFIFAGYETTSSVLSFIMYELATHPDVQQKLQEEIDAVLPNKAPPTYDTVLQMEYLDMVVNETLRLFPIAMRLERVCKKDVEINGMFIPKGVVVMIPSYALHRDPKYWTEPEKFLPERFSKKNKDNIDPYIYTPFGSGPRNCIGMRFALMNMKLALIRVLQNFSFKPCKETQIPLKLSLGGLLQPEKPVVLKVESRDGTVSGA

[4] = biological target: Cytochrome P450 2C19 (Homo sapiens, UniProt P33261); experiment: Inhibition of CYP2C19 (unknown origin); assay type: ADME
Sequence of Cytochrome P450 2C19 (P33261 whole entry): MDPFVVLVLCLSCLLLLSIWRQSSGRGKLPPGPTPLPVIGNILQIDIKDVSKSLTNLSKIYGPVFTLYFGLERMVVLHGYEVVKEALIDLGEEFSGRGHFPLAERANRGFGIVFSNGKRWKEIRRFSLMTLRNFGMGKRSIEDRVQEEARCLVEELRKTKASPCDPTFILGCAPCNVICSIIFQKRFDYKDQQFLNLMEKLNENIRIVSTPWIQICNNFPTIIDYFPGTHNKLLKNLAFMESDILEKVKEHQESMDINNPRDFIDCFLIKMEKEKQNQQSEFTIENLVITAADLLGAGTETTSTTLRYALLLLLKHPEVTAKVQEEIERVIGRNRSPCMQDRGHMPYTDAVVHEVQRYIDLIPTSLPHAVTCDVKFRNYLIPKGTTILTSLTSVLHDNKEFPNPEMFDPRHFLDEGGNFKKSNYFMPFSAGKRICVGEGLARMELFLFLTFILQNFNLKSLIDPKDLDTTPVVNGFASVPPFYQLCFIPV

[5] = biological target: Acetyl-CoA carboxylase 1 (Homo sapiens, UniProt Q13085); experiment: Inhibition of recombinant human ACC1 assessed as reduction in conversion of acetyl-CoA to malonyl-CoA incubated for 1 to 3 hrs with substrate by MALDI-TOF-MS analysis
[6] = biological target: Cytochrome P450 2D6 (Homo sapiens, UniProt P10635); experiment: Inhibition of CYP2D6 (unknown origin); assay type: ADME
Sequence of Cytochrome P450 2D6 (P10635 whole entry): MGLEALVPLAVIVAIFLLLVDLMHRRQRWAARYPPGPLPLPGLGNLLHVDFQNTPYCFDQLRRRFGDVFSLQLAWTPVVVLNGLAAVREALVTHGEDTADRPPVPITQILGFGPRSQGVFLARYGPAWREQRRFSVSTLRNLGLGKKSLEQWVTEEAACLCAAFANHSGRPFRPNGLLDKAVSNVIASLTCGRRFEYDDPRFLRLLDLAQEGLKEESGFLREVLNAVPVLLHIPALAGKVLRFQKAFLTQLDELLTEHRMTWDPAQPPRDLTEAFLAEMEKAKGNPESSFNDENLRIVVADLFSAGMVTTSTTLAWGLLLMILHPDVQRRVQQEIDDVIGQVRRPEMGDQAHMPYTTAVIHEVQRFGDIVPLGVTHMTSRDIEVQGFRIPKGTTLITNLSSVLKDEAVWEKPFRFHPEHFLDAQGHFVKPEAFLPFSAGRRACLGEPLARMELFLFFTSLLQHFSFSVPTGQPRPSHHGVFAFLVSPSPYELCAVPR

[7] = biological target: Cytochrome P450 2C9 (Homo sapiens, UniProt P11712); experiment: Inhibition of CYP2C9 (unknown origin); assay type: ADME
Sequence of Cytochrome P450 2C9 (P11712 whole entry): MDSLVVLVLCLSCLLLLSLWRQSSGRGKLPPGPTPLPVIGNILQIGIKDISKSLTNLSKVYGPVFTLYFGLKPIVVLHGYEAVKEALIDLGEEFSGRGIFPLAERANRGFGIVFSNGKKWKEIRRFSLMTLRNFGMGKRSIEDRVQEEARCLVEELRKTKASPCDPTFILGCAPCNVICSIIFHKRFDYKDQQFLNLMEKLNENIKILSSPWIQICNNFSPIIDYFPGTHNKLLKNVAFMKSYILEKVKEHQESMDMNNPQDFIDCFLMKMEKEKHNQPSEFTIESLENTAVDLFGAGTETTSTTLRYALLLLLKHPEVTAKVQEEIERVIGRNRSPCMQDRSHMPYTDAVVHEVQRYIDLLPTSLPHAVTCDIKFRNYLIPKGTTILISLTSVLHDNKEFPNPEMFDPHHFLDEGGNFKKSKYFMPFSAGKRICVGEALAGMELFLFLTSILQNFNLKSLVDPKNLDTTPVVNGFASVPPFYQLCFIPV

[8] = biological target: T1, Cytochrome P450 1A2 (Homo sapiens, UniProt P05177); experiment: Inhibition of CYP1A2 (unknown origin); assay type: ADME
T1 sequence (P05177 whole entry): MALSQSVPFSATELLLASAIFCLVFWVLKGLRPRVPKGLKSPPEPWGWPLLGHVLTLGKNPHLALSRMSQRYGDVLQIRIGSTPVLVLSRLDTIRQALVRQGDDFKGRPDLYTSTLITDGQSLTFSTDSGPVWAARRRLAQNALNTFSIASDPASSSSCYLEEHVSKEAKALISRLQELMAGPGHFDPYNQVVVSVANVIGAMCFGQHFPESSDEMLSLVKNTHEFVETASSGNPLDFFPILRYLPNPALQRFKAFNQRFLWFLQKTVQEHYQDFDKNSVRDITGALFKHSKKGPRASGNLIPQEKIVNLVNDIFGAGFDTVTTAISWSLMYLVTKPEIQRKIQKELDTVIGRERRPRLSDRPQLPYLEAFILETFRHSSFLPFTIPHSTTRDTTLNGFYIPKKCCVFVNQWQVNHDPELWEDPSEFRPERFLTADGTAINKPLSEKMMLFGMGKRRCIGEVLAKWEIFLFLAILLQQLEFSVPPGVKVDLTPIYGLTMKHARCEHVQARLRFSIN

[9] = Metabolic stability in human liver microsomes assessed as parent compound remaining after 30 mins; assay type: ADME, microsome; conditions: read-out: Stability
[10] = Metabolic stability in rat liver microsomes assessed as parent compound remaining after 30 mins; assay type: ADME, microsome; conditions: read-out: Stability

Sequence of Acetyl-CoA carboxylase 2 (O00763 whole entry): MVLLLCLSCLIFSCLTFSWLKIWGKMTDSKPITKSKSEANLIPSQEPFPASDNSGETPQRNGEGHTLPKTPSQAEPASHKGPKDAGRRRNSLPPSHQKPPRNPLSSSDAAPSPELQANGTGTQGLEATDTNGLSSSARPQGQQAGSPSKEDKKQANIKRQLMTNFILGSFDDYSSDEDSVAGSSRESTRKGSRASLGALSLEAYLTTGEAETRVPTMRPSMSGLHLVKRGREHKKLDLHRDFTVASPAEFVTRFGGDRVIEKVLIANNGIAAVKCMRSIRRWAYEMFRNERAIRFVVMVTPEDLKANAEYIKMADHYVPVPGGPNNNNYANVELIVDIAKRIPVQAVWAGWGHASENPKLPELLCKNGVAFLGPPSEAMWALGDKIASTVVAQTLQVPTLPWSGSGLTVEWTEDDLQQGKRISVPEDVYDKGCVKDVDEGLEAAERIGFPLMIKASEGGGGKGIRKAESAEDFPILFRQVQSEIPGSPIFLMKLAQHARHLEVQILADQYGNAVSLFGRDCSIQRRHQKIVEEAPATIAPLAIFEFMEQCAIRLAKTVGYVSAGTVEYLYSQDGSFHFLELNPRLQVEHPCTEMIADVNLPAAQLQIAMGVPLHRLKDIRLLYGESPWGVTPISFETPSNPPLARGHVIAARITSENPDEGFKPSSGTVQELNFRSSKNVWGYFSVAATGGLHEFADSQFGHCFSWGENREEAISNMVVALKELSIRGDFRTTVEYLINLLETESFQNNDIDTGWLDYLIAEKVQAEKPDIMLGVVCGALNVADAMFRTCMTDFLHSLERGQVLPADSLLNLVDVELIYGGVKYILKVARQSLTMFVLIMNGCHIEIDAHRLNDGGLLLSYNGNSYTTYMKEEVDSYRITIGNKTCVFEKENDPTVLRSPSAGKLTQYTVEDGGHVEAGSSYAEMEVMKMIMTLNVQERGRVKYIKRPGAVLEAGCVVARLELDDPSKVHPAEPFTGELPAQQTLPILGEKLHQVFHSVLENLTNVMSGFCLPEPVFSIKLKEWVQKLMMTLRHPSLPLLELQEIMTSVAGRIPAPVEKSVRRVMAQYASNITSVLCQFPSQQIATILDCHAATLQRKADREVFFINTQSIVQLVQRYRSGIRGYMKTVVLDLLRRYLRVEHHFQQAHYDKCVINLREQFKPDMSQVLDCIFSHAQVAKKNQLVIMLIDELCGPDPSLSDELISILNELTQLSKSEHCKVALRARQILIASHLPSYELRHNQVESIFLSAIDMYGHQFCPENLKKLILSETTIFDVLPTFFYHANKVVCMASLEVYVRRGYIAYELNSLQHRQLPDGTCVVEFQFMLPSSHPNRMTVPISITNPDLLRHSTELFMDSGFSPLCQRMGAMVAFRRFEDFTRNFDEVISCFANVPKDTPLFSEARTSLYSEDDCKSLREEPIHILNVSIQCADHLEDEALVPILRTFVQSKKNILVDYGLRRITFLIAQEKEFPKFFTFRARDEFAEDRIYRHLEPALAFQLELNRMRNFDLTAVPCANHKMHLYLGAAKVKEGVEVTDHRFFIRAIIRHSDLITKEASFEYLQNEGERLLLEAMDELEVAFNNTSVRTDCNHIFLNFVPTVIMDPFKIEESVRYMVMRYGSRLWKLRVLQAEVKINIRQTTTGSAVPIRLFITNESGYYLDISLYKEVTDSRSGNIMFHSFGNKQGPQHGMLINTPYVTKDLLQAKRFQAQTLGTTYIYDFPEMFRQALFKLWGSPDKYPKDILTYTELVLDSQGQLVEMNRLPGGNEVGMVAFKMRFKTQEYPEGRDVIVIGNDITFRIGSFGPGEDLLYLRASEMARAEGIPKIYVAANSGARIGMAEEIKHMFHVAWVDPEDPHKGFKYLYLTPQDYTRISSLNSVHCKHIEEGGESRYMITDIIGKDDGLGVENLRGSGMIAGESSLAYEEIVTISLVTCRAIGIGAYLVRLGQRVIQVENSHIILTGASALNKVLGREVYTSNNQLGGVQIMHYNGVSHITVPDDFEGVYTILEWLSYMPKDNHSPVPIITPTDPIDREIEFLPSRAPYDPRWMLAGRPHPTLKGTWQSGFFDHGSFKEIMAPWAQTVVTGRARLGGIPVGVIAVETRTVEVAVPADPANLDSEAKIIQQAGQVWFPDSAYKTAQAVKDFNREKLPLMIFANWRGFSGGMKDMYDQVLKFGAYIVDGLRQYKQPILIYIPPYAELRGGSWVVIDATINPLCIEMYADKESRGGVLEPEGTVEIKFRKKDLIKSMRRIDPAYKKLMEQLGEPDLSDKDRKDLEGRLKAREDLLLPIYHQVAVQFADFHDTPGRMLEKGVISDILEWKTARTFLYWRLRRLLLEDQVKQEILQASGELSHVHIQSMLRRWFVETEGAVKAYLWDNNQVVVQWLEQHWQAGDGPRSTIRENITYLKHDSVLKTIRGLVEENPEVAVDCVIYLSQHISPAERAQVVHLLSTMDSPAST

| Structure (SMILES) | Ratio IC50 [1] | IC50 [2] [µM] | IC50 [3] [µM] | IC50 [4] [µM] | IC50 [5] [µM] | IC50 [6] [µM] | IC50 [7] [µM] | IC50 [8] [µM] | remaining at 0.5 h [9] [%] | remaining at 0.5 h [10] [%] |
| --- | --- | --- | --- | --- | --- | --- | --- | --- | --- | --- |
| CCOc1ccc(Oc2ccc(/C=C/[C@H](C)NC(C)=O)cn2)c(Cl)c1 | > 2170 | 0.046 | > 20 | > 20 | > 100 | > 20 | > 20 | > 20 |  |  |
| CC(=O)N[C@@H](C)/C=C/c1cnc(Oc2ccc(OCC3CC3)cc2Cl)n1C | 82 |  | > 20 | > 20 | 37.2 | > 20 | 10 | > 20 |  |  |
| CC(=O)N[C@@H](C)/C=C/c1ccc(Oc2cc3sc(C)nc3cc2Cl)nc1 | 110 | 0.473 | > 20 | > 20 | 52.1 | > 20 | > 20 | > 20 | 94 | 83 |
| CC(=O)N[C@@H](C)/C=C/c1cnc(Oc2ccc(OCC3CC3)cc2)s1 | 63 | 0.031 | > 20 | 18 | 1.94 | > 20 | 8.2 | > 20 |  |  |
| CC(=O)N[C@@H](C)/C=C/c1nnc(Oc2ccc(OCC3CC3)cc2Cl)s1 | > 395 | 0.253 | > 20 | > 20 | > 100 | > 20 | 15 | > 20 |  |  |
| CC(=O)N[C@@H](C)/C=C/c1ccc(Oc2ccc(OCC3CC3)cc2Cl)nc1 | 140 |  | 16 | > 20 | 0.964 | > 20 | 9.5 | > 20 |  |  |
| CC(=O)N[C@@H](C)/C=C/c1ccc(Oc2ccc(OCC(F)F)cc2Cl)nc1 | > 1190 | 0.084 | > 20 | > 20 | > 100 | > 20 | > 20 | > 20 |  |  |

More lines, now with the values ahead:

| Ratio IC50 [1] | IC50 [2] [µM] | IC50 [3] [µM] | IC50 [4] [µM] | IC50 [5] [µM] | IC50 [6] [µM] | IC50 [7] [µM] | IC50 [8] [µM] | remaining at 0.5 h [9] [%] | remaining at 0.5 h [10] [%] | Structure (SMILES) |
| --- | --- | --- | --- | --- | --- | --- | --- | --- | --- | --- |
| 70 | 0.0043 | 19 | 18 | 0.303 | > 20 | 13 | > 20 | 83 | 52 | CC(=O)N[C@@H](C)/C=C/c1ccc(Oc2ccc3nc(C(C)C)sc3c2Cl)nc1 |
| > 1270 | 0.079 | > 20 | > 20 | > 100 | > 20 | 8.6 | > 20 |  |  | CCOc1ccc(Oc2ncc(/C=C/[C@H](C)NC(C)=O)s2)cc1 |
| 315 | 0.01 | > 20 | > 20 | 3.15 | > 20 | 17 | > 20 | 92 | 96 | CC(=O)N[C@@H](C)/C=C/c1ccc(Oc2ccc3nc(C(C)(C)O)sc3c2Cl)nc1 |
| > 327 | 0.306 | 18 | > 20 | > 100 | > 20 | > 20 | > 20 |  |  | CC(=O)N[C@@H](C)/C=C/c1ccc(Oc2ccc(OCC3CC3)cc2Cl)nn1 |
